# Patent US5849736A, “Isoxazoline and isoxazole fibrinogen receptor antagonists” (The DuPont Merck Pharmaceutical Company, priority 1995, dated 1998)
# Structures can show the parent of a compound that is named as a salt. Where two headings read alike, the source gives them in different places.
# Test system: platelet aggregation in human platelet rich plasma (PRP)
# Assay: Platelet Aggregation Assay (platelet rich plasma, with or without esterase pretreatment)
# Assay type: cell-based
# Description: Venous blood was obtained from the arm of a healthy human donor who was drug-free and aspirin-free for at least two weeks prior to blood collection. Blood was collected into 10 mL citrated Vacutainer tubes. The blood was centrifuged for 15 minutes at 150×g at room temperature, and platelet-rich plasma (PRP) was removed. The remaining blood was centrifuged for 15 minutes at 1500×g at room temperature, and platelet-poor plasma (PPP) was removed. Samples were assayed on a aggregometer (PAP-4 Platelet Aggregation Profiler), using PPP as the blank (100% transmittance). 200 μL of PRP was added to each micro test tube, and transmittance was set to 0%. 20 μL of various agonists (ADP, collagen, arachidonate, epinephrine, thrombin) were added to each tube, and the aggregation profiles were plotted (% transmittance versus time). The results are expressed as % inhibition of agonist-induced platelet aggregation. For the IC50 evaluation, the test compounds were added at various concentrations prior to the activation of the platelets.
# Ester prodrugs were preincubated (10^-3 M F.C.) with 100 IU/mL Porcine liver esterase (Sigma Chemical Co., St. Louis, Mo., #E-3128) for 2 hours at 37° C. Aliquots are then diluted in 0.1M Tris, pH 7.4, to the desired concentrations. Aliquots of 20 μl of the esterase pretreated prodrugs are added to 200 μl of human platelet rich plasma. Samples were placed in platelet profiler (aggregometer) for 8 minutes at 37° C., followed by the addition of 100 μM Adenosine Diphosphate, (Sigma Chemical Co., St. Louis, Mo., #A-6521), to induce platelet aggregation. Platelet aggregation was allowed to proceed for 5 minutes. Percent inhibition is calculated using percent aggregation in the presence of the test compound divided by percent aggregation of control, times 100. This value is subtracted from 100, yielding percent inhibition. Calculation of IC50 is performed on a Texas Instruments TI59 with an IC50 program.
# Table A below sets forth the antiplatelet activity of representative compounds of the present invention. The indicated compounds were tested for their ability to inhibit platelet aggregation (using platelet rich plasma (PRP)). The IC50 value (the concentration of antagonist which inhibits platelet aggregation by 50% relative to a control lacking the antagonist) is shown. In Table 5 the IC50 values are expressed as: +++=IC50 of <10 μM; ++=IC50 of 10-50 μM; +=IC50 of 50-100 μM (μM=micromolar).
# [1] = Platelet, preincubated with 100 IU/mL porcine liver esterase 2 hours at 37° C., 100 μM ADP, read-out: Platelet Aggregation Assay IC50 (with esterase)
# [2] = Platelet, without esterase, read-out: Platelet Aggregation Assay IC50 (without esterase)
# [3] = preincubated with 100 IU/mL porcine liver esterase 2 hours at 37° C., 100 μM ADP, read-out: Platelet Aggregation Assay IC50 (with esterase)
SMILES,IC50 [1] [µM],also measured
COC(=O)C(CNC(=O)CC1CC(c2ccc(C(=N)N)cc2)=NO1)NC(=O)Nc1cccc2ccccc12 (stereo not drawn) [Example 519],< 10,
"N=C(N)c1ccc(C2=NOC(CC(=O)NC[C@H](N)C(=O)O)C2)cc1 (stereo partly drawn) [Example 275, N^3-[3-(4-amidinophenyl)isoxazolin-5(R,S)-ylacetyl]-L-2,3-diaminopropionic acid TFA salt]",< 10,
N=C(N)c1ccc(C2=NOC(CC(=O)NCC(NC(=O)OCc3ccccc3Br)C(=O)O)C2)cc1 (stereo not drawn) [Example 528],,IC50 [2]: < 10 µM
N=C(N)NCCCC1=NOC(CC(=O)NCC(NC(=O)OCc2ccccc2)C(=O)O)C1 (stereo not drawn) [Example 1694],< 10,
COC(=O)CC(NC(=O)CC1CC(c2ccc(C(=N)N)cc2)=NO1)C(=O)NC1C2CC3CC(C2)CC1C3 (stereo not drawn) [Example 467],< 10,
N=C(N)c1ccc(C2=NOC(CC(=O)NCC(NC(=O)OCc3ccccc3Cl)C(=O)O)C2)cc1 (stereo not drawn) [Example 526],,IC50 [2]: < 10 µM
COC(=O)C(CNC(=O)CC1CC(c2ccc(C(=N)N)cc2)=NO1)NC(=O)OCc1ccccc1 (stereo not drawn) [Example 312],< 10,
N=C(N)NCCCCCC1=NOC(C(=O)NCC(NC(=O)OCc2ccccc2)C(=O)O)C1 (stereo not drawn) [Example 2402],< 10,
N=C(N)c1ccc(C2=NOC(CC(=O)NCC(NC(=O)OCCCC(F)(F)F)C(=O)O)C2)cc1 (stereo not drawn) [Example 538],,IC50 [2]: < 10 µM
N=C(N)NCCC1=NOC(CC(=O)NCC(NC(=O)OCc2ccccc2)C(=O)O)C1 (stereo not drawn) [Example 2109],< 10,
CCCCOC(=O)NC(CNC(=O)CC1CC(CCC2CCNCC2)=NO1)C(=O)OC (stereo not drawn) [Example 451],< 10,
N=C(N)NCCCCC1CC(C(=O)NCC(NC(=O)OCc2ccccc2)C(=O)O)=NO1 (stereo not drawn) [Example 1321],< 10,
Cc1nc(C)c(S(=O)(=O)NC(CNC(=O)CC2CC(c3ccc(C(=N)N)cc3)=NO2)C(=O)O)s1 (stereo not drawn) [Example 644],< 10,
CCCCNC(=N)c1ccc(C2=NOC(CC(=O)NCC(NS(=O)(=O)c3ccccc3C)C(=O)OC)C2)cc1 (stereo not drawn) [Example 2113],< 10,
"COC(=O)[C@H](CNC(=O)CC1CC(c2ccc(C(=N)N)cc2F)=NO1)NS(=O)(=O)c1cccc(C)c1 (stereo partly drawn) [Example 512, Methyl N^2-(m-toluenesulfonyl)-N^3-[3-(4-amidino-2-fluorophenyl)isoxazolin-5-ylacetyl]-S-2,3-diaminopropionate hydrochloric acid salt]",< 10,
COC(=O)C(CNC(=O)CC1CC(c2ccc(C(=N)N)cc2)=NO1)NS(=O)(=O)c1ccc(-c2ccon2)s1 (stereo not drawn) [Example 551],< 10,
CCCc1ccc(S(=O)(=O)NC(CNC(=O)CC2CC(c3ccc(C(=N)N)cc3)=NO2)C(=O)OC)cc1 (stereo not drawn) [Example 489],< 10,
"COC(=O)C[C@H](CCc1ccccc1)NC(=O)CC1CC(c2ccc(C(=N)N)cc2)=NO1 (stereo partly drawn) [Example 120b, Methyl 3(S)-{5(R,S)-N-[3-(4-amidinophenyl)isoxazolin-5-ylacetyl]amino}-3-phenethylpropanoate]",< 10,
COC(=O)CC(NC(=O)CC1CC(c2ccc(C(=N)N)cc2)=NO1)C(=O)N1CCSCC1 (stereo not drawn) [Example 468],< 10,
COC(=O)CC(CN1CCCC1)NC(=O)CC1CC(c2ccc(C(=N)N)cc2)=NO1 (stereo not drawn) [Example 612],< 10,
Cc1ccc(S(=O)(=O)NC(CNC(=O)CC2CC(c3ccc(C(=N)N)cc3)=NO2)C(=O)O)cc1 (stereo not drawn) [Example 300],< 10,
COC(=O)CC(CNS(=O)(=O)N(C)C)NC(=O)CC1CC(c2ccc(C(=N)N)cc2)=NO1 (stereo not drawn) [Example 611],< 10,
COC(=O)CC(NC(=O)CC1CC(c2ccc(C(=N)N)cc2)=NO1)C(=O)N1CCCc2ccccc21 (stereo not drawn) [Example 464],< 10,
COC(=O)C[C@H](Cc1ccccc1)NC(=O)CC1CC(c2ccc(C(=N)N)cc2)=NO1 (stereo partly drawn) [119B (3S)],,IC50 [3]: < 10 µM
COC(=O)C(CNC(=O)CC1CC(c2ccc(C(=N)N)cc2)=NO1)NS(C)(=O)=O (stereo not drawn) [Example 323],< 10,
CCCCCCOC(=O)NC(CNC(=O)CC1CC(c2ccc(C(=N)N)cc2)=NO1)C(=O)OC (stereo not drawn) [Example 529],< 10,

SMILES,IC50 [1] [µM],also measured
"COC(=O)[C@H](CNC(=O)CC1CC(c2ccc(C(=N)N)cc2)=NO1)NS(=O)(=O)c1cccc(C)c1 (stereo partly drawn) [Example 473A, Methyl N^2-3-methylphenylsulfonyl-N^3-[3-(4-amidinophenyl)isoxazolin-5R-ylacetyl]-S-2,3-diaminopropionate trifluoroacetic acid salt]",< 10,
COC(=O)C(CNC(=O)CC1CC(c2ccc(C(=N)N)cc2)=NO1)NS(=O)(=O)c1cccnc1 (stereo not drawn) [Example 494],< 10,
"COC(=O)[C@H](CN(C)C(=O)CC1CC(c2ccc(C(=N)N)cc2)=NO1)NC(=O)OCc1ccccc1 (stereo partly drawn) [Example 651, Methyl N^2-benzyloxycarbonyl-N^3-methyl-N^3-[3-(4-amidinophenyl)isoxazolin-5-(R,S)-ylacetyl]-(S)-2,3-diaminopropionate, trifluoroacetic acid salt]",< 10,
CCCCOC(=O)NC(CNC(=O)CC1CC(c2ccc(C(=N)N)cc2F)=NO1)C(=O)OC (stereo not drawn) [Example 613],< 10,
N=C(N)NCCCCC1=NOC(CCC(=O)NCC(NC(=O)OCc2ccccc2)C(=O)O)C1 (stereo not drawn) [Example 2404],< 10,
"O=C(N[C@H](C(=O)O)C1CC(c2ccc(OCCC3CCNCC3)cc2)=NO1)OCc1ccccc1 (single isomer, unassigned) [4 (isomer A)]",,IC50 [2]: 10 to 50 µM
COC(=O)C(CNC(=O)CC1CC(c2ccc(C(=N)N)cc2)=NO1)NS(=O)(=O)c1ccc(C(C)C)cc1 (stereo not drawn) [Example 492],< 10,
N=C(N)NCCCCC1=NOC(C(=O)NCC(NC(=O)OCc2ccccc2)C(=O)O)C1 (stereo not drawn) [Example 2406],< 10,
COC(=O)C(CNC(=O)CC1CC(c2ccc(C(=N)N)cc2)=NO1)NC(=O)c1ccc2ccccc2c1 (stereo not drawn) [Example 524],< 10,
CCCCCCOC(=O)NC(CNC(=O)CC1CC(c2ccc(C(=N)N)cc2)=NO1)C(=O)O (stereo not drawn) [Example 530],,IC50 [2]: < 10 µM
COC(=O)C(CNC(=O)CC1CC(c2ccc(C(=N)N)cc2)=NO1)NS(=O)(=O)c1ccccc1Br (stereo not drawn) [Example 543],< 10,
COC(=O)C(CNC(=O)CC1CC(c2ccc(C(=N)N)cc2)=NO1)NS(=O)(=O)NCc1ccccc1 (stereo not drawn) [Example 510],< 10,
COC(=O)C(CNC(=O)CC1CC(c2ccc(C(=N)N)cc2)=NO1)NS(=O)(=O)CCCc1ccccc1 (stereo not drawn) [Example 493],< 10,
COC(=O)C(CNC(=O)CC1CC(c2ccc(C(=N)N)cc2)=NO1)NS(=O)(=O)c1c(C)c(C)cc(C)c1C (stereo not drawn) [Example 485],< 10,
CCCCC(CC(=O)OCC)NC(=O)CC1CC(c2ccc(C(=N)N)cc2)=NO1 (stereo not drawn) [Example 345],< 10,
CCS(=O)(=O)NC(CNC(=O)CC1CC(c2ccc(C(=N)N)cc2)=NO1)C(=O)OC (stereo not drawn) [Example 324],< 10,
CCC(CC(=O)OC)NC(=O)CC1CC(c2ccc(C(=N)N)cc2)=NO1 (stereo not drawn) [Example 115],< 10,
CCCS(=O)(=O)NC(CNC(=O)CC1CC(c2ccc(C(=N)N)cc2)=NO1)C(=O)OC (stereo not drawn) [Example 539],,IC50 [3]: < 10 µM
COC(=O)C(CNC(=O)CC1CC(c2ccc(C(=N)N)cc2)=NO1)NS(=O)(=O)c1ccccc1 (stereo not drawn) [Example 326],< 10,
"COC(=O)[C@H](CNC(=O)CC1CC(c2ccc(C(=N)N)cc2)=NO1)NS(=O)(=O)N(C)C (stereo partly drawn) [Example 511, Methyl N^2-(N,N-dimethylsulfamoyl)-N^3-[3-(4-amidinophenyl)isoxazolin-5-(R,S)-ylacetyl]-(S)-2,3-diaminopropionate, trifluoroacetic acid salt]",< 10,
COC(=O)C(CNC(=O)CC1CC(c2ccc(C(=N)N)cc2)=NO1)NS(=O)(=O)c1ccccc1Cl (stereo not drawn) [Example 479],< 10,
COC(=O)C(CNC(=O)CC1CC(c2ccc(C(=N)N)cc2)=NO1)NS(=O)(=O)c1sccc1Br (stereo not drawn) [Example 548],< 10,
"CCCCOC(=O)N[C@@H](CNC(=O)C[C@@H]1CC(c2ccc(C(=N)N)cc2)=NO1)C(=O)OC [Example 314A, Methyl N^2-n-butyloxycarbonyl-N^3-[3-(4-amidinophenyl)isoxazolin-5(S)-ylacetyl]-(S)-2,3-diaminopropionate TFA salt]",< 10,
COC(=O)C(CNC(=O)CC1CC(c2ccc(C(=N)N)cc2)=NO1)NS(=O)(=O)NC1CCCCC1 (stereo not drawn) [Example 508],< 10,
COC(=O)C(CNC(=O)CC1CC(c2ccc(C(=N)N)cc2)=NO1)NS(=O)(=O)c1ccc(S(=O)(=O)c2ccccc2)s1 (stereo not drawn) [Example 2118],< 10,
